Experimental data taken from the NIST ThermoML archive (doi:10.1021/je101192x).

Experiment: wn = mass fraction of the nth substance listed
Details: for viscosity / mass density: 101 kPa, Liquid; for viscosity: Capillary tube (Ostwald / Ubbelohde) method; for mass density: Pycnometric method; for surface tension liquid-gas: Pendant drop shape

CN(CCO)CCO [N-methyldiethanolamine] + O
Details | mass density, 288.15 K [kg/m3] | mass density, 313.15 K [kg/m3] | surface tension liquid-gas, 313.15 K [mN/m] | viscosity, 288.15 K [mPa·s] | viscosity, 313.15 K [mPa·s]
w1 = 0.1 | 1007.1 | 1001.1 | 58.71 | 1.711 | 0.905
w1 = 0.2 | 1017.5 | 1008.1 | 54.68 | 2.631 | 1.312
